Where two headings read alike, the source gives them in different places.
What was measured:
Caco-2 cells = details: human, Caco-2, 200 uM
Description: Caco-2 cells obtained from continuous culture (passage less than 28) were seeded at high density onto Transwell polycarbonate filters. […] Inserts were placed in 12 or 24 well plates containing buffer and incubated for 30 min at 37C°. Prodrug (200 µM) was added to the apical or basolateral compartment (donor) and concentrations of prodrug and/or released parent drug in the opposite compartment (receiver) were determined at intervals over 1 hour using LC/MS/MS. Values of apparent permeability (Papp) were calculated using the equation: Papp = Vr (dC/dt)//(ACo) [formula]
Here Vr is the volume of the receiver compartment in mL; dC/dt is the total flux of prodrug and parent drug (µM/s), determined from the slope of the plot of concentration in the receiver compartment versus time; Co is the initial concentration of prodrug in µM; A is the surface area of the membrane in cm^2.

pancreatin = type: in vitro ADME, porcine; details: 5 µM
Description: The reaction was stopped by addition of 2 volumes of methanol.

[1] = type: physicochemical; details: after 60 min
Description: The chemical stability of prodrugs in aqueous buffers at pH's of 2.0, 7.4 and 8.0 were also measured. […] Each preparation was incubated with test compound at 37°C for one hour. Aliquots (50 µL) were removed at 0, 30, and 60 min and quenched with 0.1% trifluoroacetic acid in acetonitrile. Samples were then centrifuged and analyzed by LC/MS/MS (see Example 86 below for method details).

[2] = type: in vitro ADME; details: Rat Plasma, 2.0 µM, 37°C, after 60 min
Description: (§1) The stabilities of prodrugs were evaluated in one or more in vitro systems using a variety of tissue preparations following methods known in the art. […] Tissues were obtained from commercial sources (e.g., Pel-Freez Biologicals, Rogers, AR, or GenTest Corporation, Woburn, MA). […] Each preparation was incubated with test compound at 37°C for one hour. Aliquots (50 µL) were removed at 0, 30, and 60 min and quenched with 0.1% trifluoroacetic acid in acetonitrile. Samples were then centrifuged and analyzed by LC/MS/MS (see Example 86 below for method details). […] After centrifugation at 14,000 rpm for 10 min, the supernatant was removed and analyzed by LC/MS/MS. • Caco-2 Homogenate S9 Stability: Caco-2 cells were grown for 21 days prior to harvesting. Culture medium was removed and cell monolayers were rinsed and scraped off into ice-cold 10 mM sodium phosphate/0.15 M potassium chloride, pH 7.4. Cells were lysed by sonication at 4°C using a probe sonicator. Lysed cells were then transferred into 1.5 mL centrifuge vials and centrifuged at 9000 g for 20 min at 4°C. […]
(§2) For stability studies, prodrug (5 µM) was incubated in Caco-2 homogenate S9 fraction (0.5 mg protein per mL) for 60 min at 37°C. Concentrations of intact prodrug and released baclofen were determined at zero time and 60 minutes using LC/MS/MS.

[3] = type: in vitro ADME; details: Human Plasma, 2.0 µM, 37°C, after 60 min
Description: as §1, §2

[4] = type: in vitro ADME; details: Rat Liver S9 (0.5 mg/mL), 2.0 µM, NADPH, 37°C, after 60 min
Description: as §1, §2

[5] = type: in vitro ADME; details: Caco-2 S9 (0.5 mg protein per mL), 5 µM, 37°C, after 60 min
Description: as §1, §2

[6] = type: in vitro ADME; details: Human Liver S9 (0.5 mg/mL), 2.0 µM, NADPH, 37°C, after 60 min
Description: as §1, §2

[7] = oral; 2 mg t.i.d R-baclofen equivalent to 10 mg t.i.d. racemic baclofen; cited from earlier work
[8] = 1 % (w/v) pancreatin, pH 7.5, 37 °C, after 60 min

CC(=O)OCOC(=O)NC[C@H](CC(=O)[O-])c1ccc(Cl)cc1.[Na+] [(10), Sodium 4-[(Acetoxymethoxy)carbonylamino]-(3R)-(4-chlorophenyl)-butanoate]
Ratio A-B/B-A (Caco-2 cells): 1.2

O=C([O-])C[C@@H](CNC(=O)OCOC(=O)c1ccccc1)c1ccc(Cl)cc1.[Na+] [(12)]
Ratio A-B/B-A (Caco-2 cells): 5.9

O=C(O)C[C@@H](CNC(=O)OCOC(=O)C1CCCCC1)c1ccc(Cl)cc1 [(14), Sodium 4-[(Cyclohexanecarboxymethoxy)carbonylaminol-(3R)-(4-chlorophenyl)-butanoate]
Ratio A-B/B-A (Caco-2 cells): 4.1 | % of Baclofen Released (pancreatin; [8]): 101% | % of Prodrug Remaining (pancreatin; [8]): 2%

CCCC(=O)OCOC(=O)NC[C@H](CC(=O)O)c1ccc(Cl)cc1 [(16), Sodium 4-[(Butanoyloxymethoxy)carbonylamino]-(3R)-(4-chlorophenyl)-butanoate]
% of Baclofen Released (pancreatin; pig, pancreatin, 1 h, pH 7.5): 84% | % of Prodrug Remaining (pancreatin; pig, pancreatin, 1 h, pH 7.5): 1%

CC(C)C(=O)OCOC(=O)NC[C@H](CC(=O)O)c1ccc(Cl)cc1 [(18), Sodium 4-[(Isobutanoyloxymethoxy)carbonylamino]-(3R)-(4-chlorophenyl)-butanoate]
% of Baclofen Released (pancreatin; pig, pancreatin, 1 h, pH 7.5): 91% | % of Prodrug Remaining (pancreatin; pig, pancreatin, 1 h, pH 7.5): 2%

CCCC(=O)OC(OC(=O)NC[C@H](CC(=O)O)c1ccc(Cl)cc1)C(C)C (stereo partly drawn) [(27), Sodium 4-[(1-Butanoyloxyisobutoxy)carbonylamino]-(3R)-(4-chlorophenyl)-butanoate]
Ratio A-B/B-A (Caco-2 cells): 6.9 | % of Baclofen Released (pancreatin; [8]): 9% | % of Prodrug Remaining (pancreatin; [8]): 71%

CC(=O)OC(C)OC(=O)NC[C@H](CC(=O)O)c1ccc(Cl)cc1 (stereo partly drawn) [(30), Sodium 4-[(1-Acetoxyethoxy)carbonylamino]-(3R)-(4-chlorophenyl)-butanoate]
% of Baclofen Released (pancreatin; pig, pancreatin, 1 h, pH 7.5): 9% | % of Prodrug Remaining (pancreatin; pig, pancreatin, 1 h, pH 7.5): 90%

CCCC(=O)OC(C)OC(=O)NC[C@H](CC(=O)[O-])c1ccc(Cl)cc1.[Na+] (stereo partly drawn) [(32), Sodium 4-[(1-Butanoyloxyethoxy)carbonylamino]-(3R)-(4-chlorophenyl)-butanoate]
Ratio A-B/B-A (Caco-2 cells): 7.6

CC(OC(=O)NC[C@H](CC(=O)O)c1ccc(Cl)cc1)OC(=O)C1CCCCC1 (stereo partly drawn) [(38), Sodium 4-[(1-Cyclohexylcarbonyloxyethoxy)carbonylamino]-(3R)-(4-chlorophenyl)-butanoate]
Ratio A-B/B-A (Caco-2 cells): 1.1

CC(OC(=O)NC[C@H](CC(=O)[O-])c1ccc(Cl)cc1)OC(=O)c1ccccc1.[Na+] (some centres unmarked) [(40)]
% of Baclofen Released ([1]; aqueous buffer pH 2.0, 37°C): 0% | % of Prodrug Remaining ([1]; aqueous buffer pH 2.0, 37°C): 103% | % of Baclofen Released ([1]; aqueous buffer pH 7.4, 37°C): 0% | % of Prodrug Remaining ([1]; aqueous buffer pH 7.4, 37°C): 100% | % of Baclofen Released ([1]; aqueous buffer pH 8.0, 37°C): 2% | % of Prodrug Remaining ([1]; aqueous buffer pH 8.0, 37°C): 107% | % of Baclofen Released [2]: 17% | % of Prodrug Remaining [2]: 72% | % of Baclofen Released [3]: 2% | % of Prodrug Remaining [3]: 101% | % of Baclofen Released [4]: 96% | % of Prodrug Remaining [4]: 8% | % of Baclofen Released [5]: 85% | % of Prodrug Remaining [5]: 15% | % of Baclofen Released [6]: 105% | % of Prodrug Remaining [6]: 1% | % of Baclofen Released (pancreatin; pig, pancreatin, 1 h, pH 7.5): 58% | % of Prodrug Remaining (pancreatin; pig, pancreatin, 1 h, pH 7.5): 43%

CC(C)C(OC(=O)NC[C@H](CC(=O)O)c1ccc(Cl)cc1)OC(=O)C(C)(C)C (stereo partly drawn) [(43), Sodium 4-[(1-Pivaloyloxyisobutoxy)carbonylamino]-(3R)-(4-chlorophenyl)-butanoate]
Ratio A-B/B-A (Caco-2 cells): 2.3 | % of Baclofen Released (pancreatin; [8]): 4% | % of Prodrug Remaining (pancreatin; [8]): 82%

CCC(=O)OC(OC(=O)NC[C@H](CC(=O)[O-])c1ccc(Cl)cc1)C(C)C.[Na+] (stereo partly drawn) [(48), Sodium 4-[(1-Propanoyloxyisobutoxy)carbonylamino]-(3R)-(4-chlorophenyl)-butanoate]
Ratio A-B/B-A (Caco-2 cells): 6.5

CCOC(C)(OCC)C(=O)OCOC(=O)NC[C@H](CC(=O)[O-])c1ccc(Cl)cc1.[Na+] [(51), Sodium 4-[(2,2-Diethoxypropanoyloxymethoxy)carbonylamino]-(3R)-(4-chlorophenyl)-butanoate]
Ratio A-B/B-A (Caco-2 cells): 3.0

COc1ccc(C(=O)OCOC(=O)NC[C@H](CC(=O)[O-])c2ccc(Cl)cc2)cc1.[Na+] [(53), Sodium 4-[(4-Methoxybenzoloxymethoxy)carbonylamino]-(3R)-(4-chlorophenyl)-butan oate]
Ratio A-B/B-A (Caco-2 cells): 2.4

O=C(O)C[C@@H](CNC(=O)OCOC(=O)CCc1ccccc1)c1ccc(Cl)cc1 [(62), Sodium 4-[(3-Phenylpropionoyloxymethoxy)carbonylamino]-(3R)-(4-chlorophenyl)-butanoate]
% of Baclofen Released (pancreatin; [8]): 79% | % of Prodrug Remaining (pancreatin; [8]): 1%

CCCC(OC(=O)NC[C@H](CC(=O)[O-])c1ccc(Cl)cc1)OC(=O)c1ccccc1.[Na+] (stereo partly drawn) [(71), Sodium 4-[(1-Benzoyloxybutoxy)carbonylamino]-(3R)-(4-chlorophenyl)-butanoate]
Ratio A-B/B-A (Caco-2 cells): 7.1

CCCC(OC(=O)NC[C@H](CC(=O)[O-])c1ccc(Cl)cc1)OC(=O)C(C)C.[Na+] (stereo partly drawn) [(72), Sodium 4-[(1-Isobutanoyloxybutoxy)carbonylamino]-(3R)-(4-chlorophenyl)-butanoate]
Ratio A-B/B-A (Caco-2 cells): 3.5

CCCC(=O)OC(CCC)OC(=O)NC[C@H](CC(=O)[O-])c1ccc(Cl)cc1.[Na+] (stereo partly drawn) [(73), Sodium 4-[(1-Butanoyloxybutoxy)carbonylamino]-(3R)-(4-chlorophenyl)-butanoate]
Ratio A-B/B-A (Caco-2 cells): 3.2

CCCC(=O)OC(CC)OC(=O)NC[C@H](CC(=O)[O-])c1ccc(Cl)cc1.[Na+] (stereo partly drawn) [(78), Sodium 4-[(1-Butanoyloxypropoxy)carbonylamino]-(3R)-(4-chlorophenyl)-butanoate]
Ratio A-B/B-A (Caco-2 cells): 7.9

CCCC(=O)O[C@H](CCC)OC(=O)NC[C@H](CC(=O)O)c1ccc(Cl)cc1 [(86), Sodium 4-{[(1S)-Butanoyloxybutoxy]carbonylamino}-(3R)-(4-chlorophenyl)-butanoate]
% of Baclofen Released (pancreatin; [8]): 76% | % of Prodrug Remaining (pancreatin; [8]): 4%

CCCC(=O)O[C@H](OC(=O)NC[C@H](CC(=O)O)c1ccc(Cl)cc1)C(C)C [(90), Sodium 4-{[(1R)-Butanoyloxyisobutoxy]carbonylamino}-(3R)-(4-chlorophenyl)-butanoate]
% of Baclofen Released (pancreatin; [8]): 68% | % of Prodrug Remaining (pancreatin; [8]): 9%

CC(C)C(=O)O[C@@H](OC(=O)NC[C@H](CC(=O)O)c1ccc(Cl)cc1)C(C)C [(104), 4-{[(1S)-Isobutanoyloxyisobutoxy]carbonylamino}-(3R)-(4-chlorophenyl) -butanoic Acid]
% of Baclofen Released (pancreatin; 1 % (w/v) pancreatin, pH 7.5, 37 °C, after 60 min, 60 min): 6% | % of Prodrug Remaining (pancreatin; pig, pancreatin, 1 h, pH 7.5): 90%

NC[C@H](CC(=O)O)c1ccc(Cl)cc1 [R-baclofen, R-(-)-baclofen]
potency relative to orally administered racemic baclofen [7]: about 5 fold

Source: EP2354120A1, “Synthesis of acyloxyalkyl carbamate prodrugs and intermediates thereof” (XenoPort, Inc., priority 2003, dated 2005)
